{"source": "patent US12440475B2", "about": "“Hodgkin lymphoma therapy” (priority 2016, dated 2025)", "key": {"[1]": {"assay": "Histopathology of non-tumour findings (lung, spleen) in xenografted NSG mice", "format": "in vivo", "set-up": "key: 0: within physiological limits; 1: minimal; 2: mild; 3: moderate; 4: marked; 5: severe", "procedure": "(§1) Organs were fixed in 4% PFA, trimmed and post-fixed in 70° ethanol. They were then briefly processed using a vacuum inclusion processor and paraffin blocks were prepared. Five micrometer-thick sections were cut from these blocks and the resulting sections were stained with hemotoxylin-eosine (H&E) for histopathological analysis. In addition, IHC was carried out on of the totality of liver and spleen specimens for confirmation of the spread of engrafted cells. The search for single cells or small groups of grafted Hodgkin lymphoma cells was performed using an anti-CD30 antibody (DAKO, France; 1:40, EDTA pH9 pre-treatment) and the Ventana Discovery XT IHC system. Apoptosis and tumour necrosis were analysed.\n(§2) Microscopic findings were assigned a severity score based upon the following scale: “0”=within physiological limits, “1”=minimal, “2”=mild, “3”=moderate, “4”=marked, “5”=severe. This severity score was attributed according to the size and number of observed lesions."}, "[2]": {"system": "Hodgkin lymphoma cell lines", "assay": "Mitotic index and metaphases after EDO-S101 treatment, all cell lines", "format": "cell-based, human", "procedure": "The mitotic index and chromosomal aberrations for each of the cell lines were evaluated after treatment with either 20 μmol or 10 μmol EDO-S101 in DMSO. Each cell line was cultured at 37° C. in the presence of RPMI 1640 supplemented with 10% FCS and antibiotics. Colcemid (0.1 ug/ml) was added 2 h before harvesting and slides with chromosomes in metaphase were prepared following the standard methanol/acetic acid (3/1, v/v) procedure. The slides were stored at −20° C. until use.\nFISH was performed using a combination of standard procedures from the recommended protocols for chromosome analysis, following telomere and centromere staining, using PNA probes. In all, 100 metaphases were scored per in vitro dose exposure.\nThe mitotic index was determined by measurement of the sum of all cells in prophase, metaphase, anaphase and telophase divided by the total number of cells."}, "[3]": {"system": "L1236-R100, L1236/DMSO and L1236", "assay": "Viable cell count and IC50, three L1236 cell lines", "format": "cell-based", "conditions": "Homo sapiens, L-1236; all cell lines tested, including R100", "procedure": "(§3) • (a) Five Hodgkin lymphoma cell lines (KMH2, HDML2, L540, L1236 and L426) were cultured separately in the presence of bendamustine, vorinostat and EDO-S101 dissolved in DMSO at 37° C. L1236-derived Hodgkin lymphoma cell lines were selected as they have an acquired stable resistance to bendamustine (R100) or an ability to display continuous growth upon extended exposure to sub-lethal concentrations of bendamustine (R25, R50 and R75). A detailed description of the L1236-R Hodgkin lymphoma cell lines is disclosed in De Filippi et al, ASH 2015, Abstract. #2479. In these tests, the L1236-100R bendamustine resistant strain was used. […] Control cells were cultured in the same final concentration of DMSO. The number of viable cells was assessed at 24, 48 and 72 hours through a Countess™ automated cell counter (Invitrogen), each experiment being repeated three times and the results given being the mean of the three results±SD."}, "L428 cells": {"system": "L428 cells", "assay": "L428 xenograft in NSG mice, histopathology (HE staining and CD30 immunohistochemistry)", "format": "in vivo", "set-up": "key to Liver, Tumor cell infiltration, focal/multifocal (score per animal) / Liver, Tumor cell necrosis/Apoptosis (score per animal) / Eye and/or periocular mucosa, periocular tumor cell infiltration, focal/multifocal/diffuse (score per animal) / Tumor/Eye, Tumor cell necrosis/appotosis (score per animal): 0: within physiological limits; 1: minimal; 2: mild; 3: moderate; 4: marked; 5: severe", "from_the_text": "Immunodeficient NOD-SCID-gammac−/− (NSG) mice aged 5 to 6 weeks were purchased from Charles River (NOD.Cg-Prkdcscid II2rgtm1Wjl/SzJ). The mice arrived two weeks before the beginning of the experiments and were housed in micro-isolator cages during the entire course of the study. Immediately prior to the injection of Hodgkin lymphoma cells, mice were exposed to 3 Gy gamma irradiation using an IBL637 ^137Cs irradiator at a dose rate of 0.61 Gy/min. From 10^3 to 10^6 cells, either from the original cell lines or following amplification, were injected intravenously via the retro-orbital sinus. The mice were sacrificed by cervical dislocation and different organs were analysed and tumoural infiltration examined using multiple techniques.\nTwo independent experiments were performed to investigate the dose-effect of EDO-S101 in NSG mice eight weeks after xenografting with L428 cells as in Example 8. The aim of the protocol shown in FIG. 8B was to evaluate the effect of sequential treatment with a moderate dose of 60 mg/kg given at an interval of three weeks.\nThe mice were sacrificed by cervical dislocation. The sampled organs consisted of the eyes (site of injection), liver, spleen and bone marrow. Following dissection of different organs, including tumours, the first portion was used for flow cytometry (FACS) and cytogenetic analyses while the second was fixed in 4% paraformaldehyde (PFA) for immunohistochemistry (IHC). To obtain a single cell suspension, the tissues were first cut into pieces. Thereafter, the cells were physically disaggregated using an 80 μm nylon cell strainer and filtered a second time through a 70 μm nylon cell strainer (BD Biosciences, Erembodegem, Belgium).\nas §1, §2"}, "[4]": {"system": "Hodgkin lymphoma cell lines (KMH2, HDML2, L540, L1236 and L426)", "assay": "IC50 comparison of bendamustine, vorinostat and EDO-S101, five cell lines", "format": "cell-based, human", "procedure": "as §3"}, "[5]": {"system": "Hodgkin lymphoma cell lines", "assay": "Proliferation and IC50 determination (MTS assay; manual counting using Trypan blue)", "format": "cell-based", "conditions": "Homo sapiens, 48 h, range over all cell lines", "procedure": "Nine Hodgkin lymphoma cell lines were cultured at 37° C. in 24-well plates at a concentration of 0.3×10^6 cells/ml in the presence of EDO-S101 at concentrations of 0, 5, 10, 15 and 20 μmol in DMSO for 24 hours and 48 hours and the proliferation of the cells was determined using a non-radioactive cell proliferation MTS assay with CellTiter 96® Aqueous One solution reagent obtained from Promega® (this is a colorimetric method for determining the number of viable cells in a proliferation comprising a tetrazolium compound [3-(4,5-dimethylthiazol-2-yl)-5-(3-carboxymethoxyphenyl)-2-(4-sulfophenyl)-2H-tetrazolium, inner salt; MIS). The proliferation was plotted against concentration of EDO-S101 for treatment after both 24 and 48 hours."}, "L1236": {"system": "L1236", "assay": "Cell cycle checkpoint proteins and gene expression, L1236", "format": "cell-based, human", "conditions": "naïve L1236; EDO-S101 alone"}}, "note": "Several values for one entry are separate records, joined by “and”; a condition that tells them apart may be missing. Identical values can stand only once.", "data": [{"compound": "Cn1c(CCCCCCC(=O)NO)nc2cc(N(CCCl)CCCl)ccc21", "note": "[EDO-S101]", "values": [{"measurement": "Lung, alveolar histiocytosis (score per animal)", "setting": "[1]; 1*60 mg/kg", "value": 1}, {"measurement": "Lung, alveolar histiocytosis (score per animal)", "setting": "[1]; 1*80 mg/kg", "value": 1}, {"measurement": "Spleen, red pulp activation, diffuse (score per animal)", "setting": "[1]; 2*60 mg/kg", "value": 3}, {"measurement": "metaphases observed", "setting": "[2]; 10 μmol", "value": "only a few metaphases of poor quality"}, {"measurement": "metaphases observed", "setting": "[2]; 20 μmol, any cell line", "value": "No metaphases were observed"}, {"measurement": "sensitivity in mitotic index assay", "setting": "[2]; all Hodgkin lymphoma cell lines, 24 h of treatment", "value": "remarkably high sensitivity"}, {"measurement": "IC50", "setting": "[3]", "value": "1000 to 3000", "unit": "nM"}, {"measurement": "tumour masses in liver", "setting": "L428 cells; 80 mg/kg", "value": "No tumour masses were observed in the liver"}, {"measurement": "tumour cell degeneration (necrosis/apoptosis)", "setting": "L428 cells; 80 mg/kg or 60 mg/kg", "value": "No cell necerosis was observed"}, {"measurement": "Eye and/or periocular mucosa, periocular tumor cell infiltration, focal/multifocal/diffuse (score per animal)", "setting": "L428 cells; 1*60 mg/kg, 60 mg/kg", "value": "5 and 4 (2×) and 3"}, {"measurement": "Liver, Tumor cell infiltration, focal/multifocal (score per animal)", "setting": "L428 cells; 1*60 mg/kg, 60 mg/kg", "value": "2 and 1 and 3"}, {"measurement": "Tumor/Eye, Tumor cell necrosis/appotosis (score per animal)", "setting": "L428 cells; 1*60 mg/kg, 60 mg/kg", "value": "0 (2×) and 1 (2×)"}, {"measurement": "Eye and/or periocular mucosa, periocular tumor cell infiltration, focal/multifocal/diffuse (score per animal)", "setting": "L428 cells; 1*80 mg/kg", "value": 5}, {"measurement": "Tumor/Eye, Tumor cell necrosis/appotosis (score per animal)", "setting": "L428 cells; 1*80 mg/kg", "value": 1}, {"measurement": "Eye and/or periocular mucosa, periocular tumor cell infiltration, focal/multifocal/diffuse (score per animal)", "setting": "L428 cells; 2*60 mg/kg", "value": 4}, {"measurement": "Liver, Tumor cell necrosis/Apoptosis (score per animal)", "setting": "L428 cells; 2*60 mg/kg", "value": 0}, {"measurement": "Tumor tissue, without connection to other organs (per animal)", "setting": "L428 cells; 2*60 mg/kg", "value": "yes"}, {"measurement": "Liver, Tumor cell infiltration, focal/multifocal (score per animal)", "setting": "L428 cells; 2*60 mg/kg, 60 mg/kg", "value": "1 (3×) and 0 and 2"}, {"measurement": "Tumor/Eye, Tumor cell necrosis/appotosis (score per animal)", "setting": "L428 cells; 2*60 mg/kg, 60 mg/kg", "value": "4 and 2 (2×)"}, {"measurement": "tumour regression", "setting": "L428 cells; single dose of 60 mg/kg", "value": "significant tumour regression"}, {"measurement": "severity of tumoural cell infiltration", "setting": "L428 cells; single injection 60 or 80 mg/kg, or two injections of 60 mg/kg three weeks apart", "value": "significant decrease in the severity of tumoural cell infiltration"}, {"measurement": "tumour regression", "setting": "L428 cells; two administrations of 60 mg/kg three weeks apart, versus control and single 60 mg/kg", "value": "Significant tumour regression"}, {"measurement": "IC50", "setting": "[4]; Homo sapiens, range over all cell lines tested, including L1236-R", "value": "1000 to 2000", "unit": "nM"}, {"measurement": "IC50s relative to bendamustine", "setting": "[4]; tumour cells of Hodgkin lymphoma", "value": "about ten-fold lower than those of bendamustine"}, {"measurement": "IC50", "setting": "[5]", "value": "1600 to 6300", "unit": "nM"}, {"measurement": "cell cycle checkpoint proteins, cellular and gene expression changes", "setting": "L1236", "value": "activated cell cycle checkpoint proteins and induced cellular and gene expression changes compatible with the triggering of apoptosis"}]}]}
